This data set concerns CCRIS mutagenicity, Ames/micronucleus/aberration tests. Description: CCRIS mutagenicity studies.
The mark [1] stands for this setting: Test System: AMES SALMONELLA TYPHIMURIUM, Strain/Indicator: TA98, Metabolic Activation: NONE, Method: STANDARD PLATE.

Calls of active or inactive are those of the source. The rule behind the calls is not given here.

`F`: the mutagenic call (End Point: IN VIVO MICRONUCLEUS, Test System: BONE MARROW POLYCHROMATIC ERYTHROCYTES, Species: MOUSE, Strain/Sex: DDY/MALE, Route: IP) is “inactive; negative”; the mutagenic call (Test System: AMES SALMONELLA TYPHIMURIUM, Strain/Indicator: TA97A, Metabolic Activation: NONE, Method: STANDARD PLATE) is “inactive; negative”; the mutagenic call (Test System: AMES SALMONELLA TYPHIMURIUM, Strain/Indicator: TA97A, Metabolic Activation: RAT, LIVER, S-9, AROCLOR 1254, Method: STANDARD PLATE) was “inactive; negative”; the mutagenic call (Test System: AMES SALMONELLA TYPHIMURIUM, Strain/Indicator: TA98, Metabolic Activation: HAMSTER, LIVER, S-9, AROCLOR 1254 (10%), Method: PREINCUBATION) is “inactive; negative”; the mutagenic call (Test System: AMES SALMONELLA TYPHIMURIUM, Strain/Indicator: TA98, Metabolic Activation: NONE, Method: FLUCTUATION TEST) is “inactive; negative”; the mutagenic call (Test System: AMES SALMONELLA TYPHIMURIUM, Strain/Indicator: TA98, Metabolic Activation: NONE, Method: PREINCUBATION) is “inactive; negative”. Besides, the mutagenic call is, setting by setting: under setting [1], “inactive; negative”; (Test System: AMES SALMONELLA TYPHIMURIUM, Strain/Indicator: TA98, Metabolic Activation: RAT, LIVER, S-9, AROCLOR 1254 (10%), Method: PREINCUBATION) “inactive; negative”; (Test System: AMES SALMONELLA TYPHIMURIUM, Strain/Indicator: TA98, Metabolic Activation: RAT, LIVER, S-9, AROCLOR 1254, Method: STANDARD PLATE) “inactive; negative”; (Test System: AMES SALMONELLA TYPHIMURIUM, Strain/Indicator: TA98, Metabolic Activation: RAT, LIVER, S-9, AROCLOR, Method: PREINCUBATION) “inactive; negative”; (Test System: AMES SALMONELLA TYPHIMURIUM, Strain/Indicator: TA98, Metabolic Activation: RAT, LIVER, S-9, PCB, Method: FLUCTUATION TEST) “inactive; negative”; (Test System: AMES SALMONELLA TYPHIMURIUM, Strain/Indicator: TA98, Metabolic Activation: RAT, LIVER, S-9, PCB, Method: STANDARD PLATE) “inactive; negative”. Moreover, the mutagenic call is “inactive; negative” (Test System: AMES SALMONELLA TYPHIMURIUM, Strain/Indicator: TA98, Metabolic Activation: RAT, LIVER, S-9, PHENOBARBITAL, Method: STANDARD PLATE); “inactive; negative” (Test System: AMES SALMONELLA TYPHIMURIUM, Strain/Indicator: TA100, Metabolic Activation: HAMSTER, LIVER, S-9, AROCLOR 1254 (10%), Method: PREINCUBATION); “inactive; negative” (Test System: AMES SALMONELLA TYPHIMURIUM, Strain/Indicator: TA100, Metabolic Activation: NONE, Method: FLUCTUATION TEST); “inactive; negative” (Test System: AMES SALMONELLA TYPHIMURIUM, Strain/Indicator: TA100, Metabolic Activation: NONE, Method: PREINCUBATION); “inactive; negative” (Test System: AMES SALMONELLA TYPHIMURIUM, Strain/Indicator: TA100, Metabolic Activation: NONE, Method: STANDARD PLATE); “inactive; negative” (Test System: AMES SALMONELLA TYPHIMURIUM, Strain/Indicator: TA100, Metabolic Activation: RAT, LIVER, S-9, AROCLOR 1254 (10%), Method: PREINCUBATION). The mutagenic call was “inactive; negative” (Test System: AMES SALMONELLA TYPHIMURIUM, Strain/Indicator: TA100, Metabolic Activation: RAT, LIVER, S-9, AROCLOR 1254, Method: STANDARD PLATE); “inactive; negative” (Test System: AMES SALMONELLA TYPHIMURIUM, Strain/Indicator: TA100, Metabolic Activation: RAT, LIVER, S-9, AROCLOR, Method: PREINCUBATION); “inactive; negative” (Test System: AMES SALMONELLA TYPHIMURIUM, Strain/Indicator: TA100, Metabolic Activation: RAT, LIVER, S-9, PCB, Method: FLUCTUATION TEST); “inactive; negative” (Test System: AMES SALMONELLA TYPHIMURIUM, Strain/Indicator: TA100, Metabolic Activation: RAT, LIVER, S-9, PCB, Method: STANDARD PLATE); “inactive; negative” (Test System: AMES SALMONELLA TYPHIMURIUM, Strain/Indicator: TA100, Metabolic Activation: RAT, LIVER, S-9, PHENOBARBITAL, Method: STANDARD PLATE); “inactive; negative” (Test System: AMES SALMONELLA TYPHIMURIUM, Strain/Indicator: TA102, Metabolic Activation: NONE, Method: STANDARD PLATE). Moreover, the mutagenic call reads like this: (Test System: AMES SALMONELLA TYPHIMURIUM, Strain/Indicator: TA102, Metabolic Activation: RAT, LIVER, S-9, AROCLOR 1254, Method: STANDARD PLATE) “inactive; negative”; (Test System: AMES SALMONELLA TYPHIMURIUM, Strain/Indicator: TA1535, Metabolic Activation: HAMSTER, LIVER, S-9, AROCLOR 1254 (10%), Method: PREINCUBATION) “inactive; negative”; (Test System: AMES SALMONELLA TYPHIMURIUM, Strain/Indicator: TA1535, Metabolic Activation: NONE, Method: PREINCUBATION) “inactive; negative”; (Test System: AMES SALMONELLA TYPHIMURIUM, Strain/Indicator: TA1535, Metabolic Activation: NONE, Method: STANDARD PLATE) “inactive; negative”; (Test System: AMES SALMONELLA TYPHIMURIUM, Strain/Indicator: TA1535, Metabolic Activation: RAT, LIVER, S-9, AROCLOR 1254 (10%), Method: PREINCUBATION) “inactive; negative”; (Test System: AMES SALMONELLA TYPHIMURIUM, Strain/Indicator: TA1535, Metabolic Activation: RAT, LIVER, S-9, AROCLOR 1254, Method: STANDARD PLATE) “inactive; negative”. The mutagenic call by setting is: (Test System: AMES SALMONELLA TYPHIMURIUM, Strain/Indicator: TA1535, Metabolic Activation: RAT, LIVER, S-9, AROCLOR, Method: PREINCUBATION) “inactive; negative”; (Test System: AMES SALMONELLA TYPHIMURIUM, Strain/Indicator: TA1537, Metabolic Activation: HAMSTER, LIVER, S-9, AROCLOR 1254 (10%), Method: PREINCUBATION) “inactive; negative”; (Test System: AMES SALMONELLA TYPHIMURIUM, Strain/Indicator: TA1537, Metabolic Activation: NONE, Method: PREINCUBATION) “inactive; negative”; (Test System: AMES SALMONELLA TYPHIMURIUM, Strain/Indicator: TA1537, Metabolic Activation: RAT, LIVER, S-9, AROCLOR 1254 (10%), Method: PREINCUBATION) “inactive; negative”; (Test System: AMES SALMONELLA TYPHIMURIUM, Strain/Indicator: TA1537, Metabolic Activation: RAT, LIVER, S-9, AROCLOR, Method: PREINCUBATION) “inactive; negative”; (Test System: AMES SALMONELLA TYPHIMURIUM, Strain/Indicator: TA1538, Metabolic Activation: NONE, Method: PREINCUBATION) “inactive; negative”. The mutagenic call was “inactive; negative” (Test System: AMES SALMONELLA TYPHIMURIUM, Strain/Indicator: TA1538, Metabolic Activation: RAT, LIVER, S-9, AROCLOR, Method: PREINCUBATION); “inactive; negative” (Test System: CHINESE HAMSTER OVARY, Strain/Indicator: CHO-K1-BH4 (HGPRT), Metabolic Activation: NONE, Method: SUSPENSION/PLATE); “inactive; negative” (Test System: CHINESE HAMSTER OVARY, Strain/Indicator: CHO-K1-BH4 (HGPRT), Metabolic Activation: RAT, LIVER, S-9, AROCLOR, Method: SUSPENSION/PLATE); “inactive; negative” (Test System: CHINESE HAMSTER V-79, Strain/Indicator: V-79 (HGPRT)/6-THIOGUANINE, Metabolic Activation: NONE); “inactive; negative” (Test System: CHINESE HAMSTER V-79, Strain/Indicator: V-79/6-THIOGUANINE, Metabolic Activation: NONE); “inactive; negative” (Test System: E.COLI, Strain/Indicator: WP2 UVRA, Metabolic Activation: NONE, Method: FLUCTUATION TEST). Also, the mutagenic call reads like this: (Test System: E.COLI, Strain/Indicator: WP2 UVRA, Metabolic Activation: RAT, LIVER, S-9, PCB, Method: FLUCTUATION TEST) “inactive; negative”; (Test System: MOUSE LYMPHOMA, Strain/Indicator: L5178Y (TK+/TK-), Metabolic Activation: NONE, Method: SUSPENSION/PLATE) “active; positive”; (Test System: MOUSE LYMPHOMA, Strain/Indicator: L5178Y (TK+/TK-), Metabolic Activation: RAT, LIVER, S-9, AROCLOR 1254, Method: SUSPENSION/PLATE) “active; positive”.

For `O=[N+]([O-])c1ccc2c(c1)CC=C2`, under setting [1], the mutagenic call is “active; positive”.

Values taken from PubChem BioAssay AID1259407 (Chemical Carcinogenesis Research Information System (CCRIS), 2018).
